The values that follow come from patent publication US20210069272A1, “METHODS FOR SKIN WHITENING, ULTRAVIOLET RADIATION PROTECTION AND SUPPRESSION OF GLYCATION USING GREEN MANGO EXTRACTS AND COMPOUNDS OBTAINED THEREFROM” (TCI CO., LTD., priority 2019, published 2021).

One experiment concerns porcine collagen. The experiment can be described thus: Anti-glycation assay, AGEs formation due to collagen glycation with fructose. The experiment is classed as biochemical. The settings on record: 100 μg/mL aqueous solution, 50° C., 24 hours. As to the method: In order to evaluate the anti-glycation activity of the green mango extract, an anti-glycation assay was performed to determine the inhibitory effect of the green mango extract described in Example 1 on glycation of porcine collagen. Briefly, a 60 mg/mL collagen solution (containing 0.06% sodium azide) and a 1.5 M fructose solution were first prepared using a 200 mM phosphate buffer (pH 7.4). For collagen to undergo glycation, a mixture of 0.2 mL of the collagen solution and 0.2 mL of the fructose solution was mixed thoroughly with 0.2 mL of the green mango extract sample at 140, 70, 14, 1.4, or 0.14 mg/mL (diluted with deionized water), or mixed with deionized water (as a control). The reaction mixtures were incubated at 50° C. for 24 hours. Thereafter, aminoguanidine (AG, purchased from Sigma) was added to terminate the glycation reaction. […] The reaction mixtures were incubated at 50° C. for 24 hours, and the fluorescence intensity of each of the mixtures (0.1 mL) at 0 hours and 24 hours was measured to calculate the rate of AGEs formation due to collagen glycation.

The subject of a further experiment is melanoma cells B16F10. The experiment can be described thus: Melanin production assay in melanoma cells B16F10. The experiment is classed as cell-based, mouse. The conditions noted are these: 0.25 mg/mL, 48 hours. As to the method: The melanin levels in B 16F10 melanoma cells were determined according to procedures described below. Cells were harvested from the cell culture treated as indicated. The cells were washed with PBS and treated with trypsin for 3 minutes. The suspended cells were collected by centrifugation (400×g, 5 minutes), washed twice with PBS, and then resuspended in 200 μL of PBS. The cell suspension was frozen in liquid nitrogen for 10 minutes and then left at room temperature for about 30 minutes until completely thawed, followed by centrifugation (12,000 g, 3 minutes) to remove the supernatant. The remaining cell pellet was mixed thoroughly with 120 μL of 1 N sodium hydroxide aqueous solution, and heated at 60° C. for 1 hour to obtain a cell lysate containing dissolved melanin. 100 μL of the cell lysate was transferred to a 96-well plate, and the absorbance at 450 nm (OD450) was measured using an enzyme-linked immunosorbent assay (ELISA) reader (BioTek). The relative melanin level is calculated according to the following formula: Relative melanin level (%)=(OD450each group/OD450mock control)×100% In order to examine the effect of the green mango extract on melanin production, the melanoma cells B16F10 was assayed for melanin production after treatment with the green mango extract described in Example 1. […]

`O=C(OCC1OC(OC(=O)c2cc(O)c(O)c(O)c2)C(OC(=O)c2cc(O)c(O)c(O)c2)C(OC(=O)c2cc(O)c(O)c(O)c2)C1OC(=O)c1cc(O)c(O)c(O)c1)c1ccc(O)cc1` (stereo not drawn) [formula (I)]: the “AGEs formation compared to the control” value in the experiment on porcine collagen is on record as “about 60.2%”. Consider `O=C(OCC1OC(OC(=O)c2cc(O)c(O)c(O)c2)C(OC(=O)c2cc(O)c(O)c(O)c2)C(OC(=O)c2cc(O)c(O)c(O)c2)C1OC(=O)c1cc(O)c(O)c(O)c1)c1cc(O)c(O)c(O)c1` (stereo not drawn) [formula (II)], for which the “AGEs formation compared to the control” value in the experiment with porcine collagen is on record as about 73.7%. For `O=c1cc(CO)occ1O` [kojic acid], the “inhibitory effect on melanin production, green mango extract versus kojic acid at the same concentration” value with melanoma cells B16F10 is given as “comparable”.
